From patent publication US20260132129A1 (Genesis Therapeutics, Inc., priority 2022, published 2026)

Target: T1, PI3Kα H1047R (T47D cells) (Homo sapiens, UniProt P42336, H1047R)
T1 construct: endogenous in cells; host or cells: T47D cells
Assay: PI3Kα cellular assay: pAKT HTRF in T47D cells after EGF stimulation
Format: cell-based
Settings: for IC50: T47D cells (PI3Kα H1047R), pAKT S473 HTRF, EGF stimulation
Outline: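 T47D cells (PIK3CA H1047R) serum-starved 16 h, then treated 1 h at 37 °C with compound (10,000 nM top, 3-fold steps to 0.5 nM). After 10 min stimulation with 20 ng/mL EGF, cells were lysed and pAKT measured by HTRF.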

T1 sequence (P42336 whole entry H1047R): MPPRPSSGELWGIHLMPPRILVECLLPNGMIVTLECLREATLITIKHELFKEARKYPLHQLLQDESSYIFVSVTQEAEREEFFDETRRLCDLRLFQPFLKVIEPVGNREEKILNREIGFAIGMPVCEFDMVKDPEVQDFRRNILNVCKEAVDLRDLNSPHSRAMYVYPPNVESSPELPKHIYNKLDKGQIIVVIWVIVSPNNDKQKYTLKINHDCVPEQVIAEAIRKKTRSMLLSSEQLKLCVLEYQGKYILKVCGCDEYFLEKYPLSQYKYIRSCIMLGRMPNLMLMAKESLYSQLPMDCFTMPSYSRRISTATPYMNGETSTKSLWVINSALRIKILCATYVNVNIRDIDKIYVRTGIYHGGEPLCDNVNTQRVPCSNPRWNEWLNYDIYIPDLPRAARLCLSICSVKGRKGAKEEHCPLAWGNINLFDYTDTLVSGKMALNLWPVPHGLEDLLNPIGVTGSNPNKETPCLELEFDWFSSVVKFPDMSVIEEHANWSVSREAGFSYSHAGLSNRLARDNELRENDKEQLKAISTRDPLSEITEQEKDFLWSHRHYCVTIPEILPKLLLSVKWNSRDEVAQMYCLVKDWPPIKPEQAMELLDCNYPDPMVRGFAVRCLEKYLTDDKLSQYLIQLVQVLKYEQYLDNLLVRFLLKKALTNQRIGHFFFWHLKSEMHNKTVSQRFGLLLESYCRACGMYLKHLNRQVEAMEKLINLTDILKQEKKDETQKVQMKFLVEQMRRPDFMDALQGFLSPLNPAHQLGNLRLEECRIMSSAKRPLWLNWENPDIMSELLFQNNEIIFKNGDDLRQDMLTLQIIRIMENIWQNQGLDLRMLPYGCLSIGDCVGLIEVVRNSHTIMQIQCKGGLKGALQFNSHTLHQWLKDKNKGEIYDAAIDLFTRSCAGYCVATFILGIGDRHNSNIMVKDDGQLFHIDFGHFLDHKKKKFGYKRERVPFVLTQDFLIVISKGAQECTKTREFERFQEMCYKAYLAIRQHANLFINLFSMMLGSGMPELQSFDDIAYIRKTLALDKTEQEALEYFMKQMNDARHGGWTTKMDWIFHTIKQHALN
T1 sequence (P27986 whole entry partner): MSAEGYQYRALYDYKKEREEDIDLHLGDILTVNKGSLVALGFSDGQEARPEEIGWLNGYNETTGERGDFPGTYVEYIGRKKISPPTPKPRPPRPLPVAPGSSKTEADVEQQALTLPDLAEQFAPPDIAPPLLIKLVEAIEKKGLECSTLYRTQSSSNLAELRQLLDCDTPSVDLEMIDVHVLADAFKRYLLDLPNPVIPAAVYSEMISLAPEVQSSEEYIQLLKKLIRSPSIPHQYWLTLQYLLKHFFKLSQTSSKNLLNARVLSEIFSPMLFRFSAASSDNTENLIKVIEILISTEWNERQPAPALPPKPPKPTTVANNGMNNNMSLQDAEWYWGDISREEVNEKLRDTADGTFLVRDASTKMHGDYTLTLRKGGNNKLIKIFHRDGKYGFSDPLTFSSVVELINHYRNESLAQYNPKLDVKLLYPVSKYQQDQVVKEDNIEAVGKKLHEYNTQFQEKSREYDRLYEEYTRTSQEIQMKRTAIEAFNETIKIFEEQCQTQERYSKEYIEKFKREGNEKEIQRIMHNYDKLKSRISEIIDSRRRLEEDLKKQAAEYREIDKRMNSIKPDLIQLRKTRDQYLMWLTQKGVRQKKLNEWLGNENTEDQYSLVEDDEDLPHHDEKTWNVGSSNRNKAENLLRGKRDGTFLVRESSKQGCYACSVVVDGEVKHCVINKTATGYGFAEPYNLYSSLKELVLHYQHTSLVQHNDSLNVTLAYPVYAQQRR

Row | SMILES | IC50 | T47D pAKT S473 HTRF IC50 (H1047R): T47D (H1047R) selectivity over SKBR3 (WT)
1 | Cc1cc([C@H](C)Nc2ccccc2C(=O)O)c2nc(-c3cnc(C)c(Cl)c3)cc(=O)n2c1 [Compound 1158] | > 2000 nM | C (C denotes ≤5-fold)
2 | CCC(Nc1ccccc1S(N)(=O)=O)c1cc(C)cn2c(=O)cc(N3CCOCC3)nc12 (centres unmarked) [Compound 1159] | > 2000 nM | C (C denotes ≤5-fold)
3 | Cc1cc(C(C)Nc2ccccc2C(=O)O)c2nc(N3Cc4ccccc4C3)c(C#N)c(=O)n2c1 (centres unmarked) [Compound 1160] | < 100 nM | A (A denotes >20-fold)
4 | Cc1cc([C@@H](C)Nc2ccccc2)c2nc(N(C)Cc3ccccc3)c(C)c(=O)n2c1 [Compound 1163] | 100 to 500 nM | A (A denotes >20-fold)
5 | Cc1cc(C(C)Nc2ccccc2C(=O)O)c2nc(-c3cc(F)cc(C4CC4)c3)c(C)c(=O)n2c1 (centres unmarked) [Compound 1169] | < 100 nM | A (A denotes >20-fold)
6 | Cc1cc(C(C)Nc2ccccc2C(=O)O)c2nc(-c3ccc(C(C)C)nc3)c(C)c(=O)n2c1 (centres unmarked) [Compound 1178] | < 100 nM | A (A denotes >20-fold)
7 | Cc1cc(C(C)Nc2cc(F)ccc2C(=O)O)c2nc(-c3ccnc(C4CC4)c3)c(C)c(=O)n2c1 (centres unmarked) [Compound 1182] | < 100 nM | A (A denotes >20-fold)
8 | CC#Cc1nc2c(C(C)Nc3ccccc3C(=O)O)cc(C)cn2c(=O)c1C (centres unmarked) [Compound 1185] | 500 to 2000 nM | B (B denotes 20-fold≥value>5-fold)
9 | Cc1cc(C(C)Nc2ccccc2C(=O)O)c2nc(C#CC3CC3)c(C)c(=O)n2c1 (centres unmarked) [Compound 1186] | 100 to 500 nM | A (A denotes >20-fold)
10 | C#Cc1ccc(-c2nc3c(C(C)Nc4ccccc4C(=O)O)cc(C)cn3c(=O)c2C)cn1 (centres unmarked) [Compound 1191] | < 100 nM | A (A denotes >20-fold)
11 | Cc1cc(C(C)Nc2cc(F)ccc2C(=O)O)c2nc(-c3cccc(F)c3)c(C)c(=O)n2c1 (centres unmarked) [Compound 1197] | < 100 nM | A (A denotes >20-fold)
12 | Cc1cc([C@@H](C)Nc2ccccc2C(=O)O)c2nc(-c3ccnc(C)n3)c(C)c(=O)n2c1 [Compound 1198] | > 2000 nM | C (C denotes ≤5-fold)
13 | Cc1cc(C(C)Nc2ccccc2C(=O)O)c2nc(-c3ccnc(C)c3)c(C)c(=O)n2c1 (centres unmarked) [Compound 1202] |  | A (A denotes >20-fold)
14 | Cc1cc(C(C)Nc2ccccc2C(=O)O)c2nc(-c3cc(C)ncn3)c(C)c(=O)n2c1 (centres unmarked) [Compound 1203] | 100 to 500 nM | A (A denotes >20-fold)
15 | CC#Cc1nc2c([C@@H](C)Nc3ccccc3C(=O)O)cc(C)cn2c(=O)c1C [Compound 1205] | > 2000 nM | C (C denotes ≤5-fold)
16 | CC#Cc1nc2c([C@H](C)Nc3ccccc3C(=O)O)cc(C)cn2c(=O)c1C [Compound 1206] | 500 to 2000 nM | B (B denotes 20-fold≥value>5-fold)
17 | Cc1cc([C@H](C)Nc2ccccc2C(=O)O)c2nc(N3Cc4ccccc4C3)c(C#N)c(=O)n2c1 [Compound 1208] | 100 to 500 nM | A (A denotes >20-fold)
18 | Cc1cc(C(C)Nc2cccnc2C(=O)O)c2nc(-c3cccc(F)c3)c(C)c(=O)n2c1 (centres unmarked) [Compound 1223] | < 100 nM | A (A denotes >20-fold)
19 | Cc1cc([C@@H](C)Nc2ccccc2C(=O)O)c2nc(C#CC3CC3)cc(=O)n2c1 [Compound 1224] |  | C (C denotes ≤5-fold)
20 | Cc1cc(C(C)Nc2ccccc2C(=O)O)c2nc(-c3cccc(F)c3)c(C3CC3)c(=O)n2c1 (centres unmarked) [Compound 1231] | < 100 nM | A (A denotes >20-fold)
21 | Cc1cc(C(C)Nc2ccc(F)cc2C(=O)O)c2nc(-c3cccc(F)c3)c(C)c(=O)n2c1 (centres unmarked) [Compound 1238] | < 100 nM | A (A denotes >20-fold)

Row | SMILES | IC50 | T47D pAKT S473 HTRF IC50 (H1047R): T47D (H1047R) selectivity over SKBR3 (WT)
22 | Cc1cc(C(C)Nc2cccnc2C(=O)O)c2nc(-c3ccnc(C4CC4)c3)c(C)c(=O)n2c1 (centres unmarked) [Compound 1241] | > 2000 nM | A (A denotes >20-fold)
23 | Cc1cccc(-c2nc3c(C(C)Nc4ccccc4C(=O)O)cc(C)cn3c(=O)c2C(C)C)c1 (centres unmarked) [Compound 1245] |  | A (A denotes >20-fold)
24 | Cc1cc(C(C)Nc2ccccc2S(N)(=O)=O)c2nc(-c3cccc(F)c3)c(C)c(=O)n2c1 (centres unmarked) [Compound 1248] | 100 to 500 nM | A (A denotes >20-fold)
25 | Cc1cc(C(C)Nc2ccccc2C(=O)O)c2nc(OC3CCCOC3)c(C)c(=O)n2c1 (centres unmarked) [Compound 1254] | 100 to 500 nM | A (A denotes >20-fold)
26 | Cc1cc(C(C)Nc2ccccc2C(=O)O)c2nc(-c3ccc(F)cc3)c(C#N)c(=O)n2c1 (centres unmarked) [Compound 1260] | < 100 nM | A (A denotes >20-fold)
27 | Cc1cc(C(C)Nc2ccccc2S(N)(=O)=O)c2nc(-c3cccnc3)c(C3CC3)c(=O)n2c1 (centres unmarked) [Compound 1261] | 100 to 500 nM | A (A denotes >20-fold)
28 | CNC(=O)C#Cc1ccc(-c2nc3c([C@@H](C)Nc4ccccc4C(=O)O)cc(C)cn3c(=O)c2C)cc1F [Compound 1264] | < 100 nM | A (A denotes >20-fold)
29 | CNC(=O)C#Cc1ccc(-c2nc3c([C@H](C)Nc4ccccc4C(=O)O)cc(C)cn3c(=O)c2C)cc1F [Compound 1265] | > 2000 nM | C (C denotes ≤5-fold)
30 | Cc1cc([C@H](C)Nc2ccccc2C(=O)O)c2nc(-c3ccc(C#CC4(C)CCC4)c(F)c3)c(C)c(=O)n2c1 [Compound 1267] |  | C (C denotes ≤5-fold)
31 | Cc1cc([C@@H](C)Nc2ccccc2C(=O)O)c2nc(-c3ccc(-c4ccc5c(c4)CCO5)c(F)c3)c(C)c(=O)n2c1 [Compound 1268] | < 100 nM | A (A denotes >20-fold)
32 | Cc1cc([C@H](C)Nc2ccccc2C(=O)O)c2nc(-c3ccc(-c4ccc5c(c4)CCO5)c(F)c3)c(C)c(=O)n2c1 [Compound 1269] | > 2000 nM | C (C denotes ≤5-fold)
33 | COCC1=NC(C#N)C(NCc2ccc(-c3nc4c([C@H](C)Nc5ccccc5C(=O)O)cc(C)cn4c(=O)c3C)cc2F)O1 (some centres unmarked) [Compound 1271] |  | B (B denotes 20-fold≥value>5-fold)
34 | Cc1cc(C(C)Nc2ccccc2C(=O)O)c2nc(-c3cnc(C4CCOCC4)nc3)c(C)c(=O)n2c1 (centres unmarked) [Compound 1272] | 100 to 500 nM | A (A denotes >20-fold)
35 | Cc1cc([C@@H](C)Nc2ccccc2S(=O)(=O)O)c2nc(-c3ccc(C4CC4)cc3)c(C3CC3)c(=O)n2c1 [Compound 1274] | 100 to 500 nM | A (A denotes >20-fold)
36 | Cc1cc([C@H](C)Nc2ccccc2S(=O)(=O)O)c2nc(-c3ccc(C4CC4)cc3)c(C3CC3)c(=O)n2c1 [Compound 1275] | > 2000 nM | C (C denotes ≤5-fold)
37 | Cc1cc([C@H](C)Nc2ccccc2C(=O)O)c2nc(-c3ccc(-c4ccc5oc(=O)n(C)c5c4)c(C)c3)c(C)c(=O)n2c1 [Compound 1276] | < 100 nM | C (C denotes ≤5-fold)
38 | Cc1cc([C@@H](C)Nc2ccccc2C(=O)O)c2nc(-c3cccc(F)c3)c(C(C)C)c(=O)n2c1 [Compound 1277] | 100 to 500 nM | A (A denotes >20-fold)
39 | Cc1cc([C@H](C)Nc2ccccc2C(=O)O)c2nc(-c3cccc(F)c3)c(C(C)C)c(=O)n2c1 [Compound 1278] | > 2000 nM | C (C denotes ≤5-fold)
40 | Cc1cc([C@@H](C)Nc2ccccc2C(=O)O)c2nc([C@H]3CCCOC3)c(C)c(=O)n2c1 [Compound 1279] | < 100 nM | A (A denotes >20-fold)
41 | Cc1cc([C@@H](C)Nc2ccccc2C(=O)O)c2nc([C@@H]3CCCOC3)c(C)c(=O)n2c1 [Compound 1280] | < 100 nM | A (A denotes >20-fold)
